From patent publication US20090062214A1, “Left-Side Glucose Lipid a Analogue” (priority 2004, published 2009)
Where two headings read alike, the source gives them in different places.

Experiments:
[1] = tested on: mouse fatal state after GalN.LPS injection; test: Survival test for mouse fatal state (in vivo); parameters: species or system C3H/HeN mice; conditions: tail vein
Description: (§1) A group of five C3H/HeN mice (male, 7-week old) known to be highly sensitive to lipopolysaccharide (LPS) was used. Galactosamine (GalN, 1 g/5 mL) and LPS (0.05 mg/5 mL) were each dissolved in normal saline, and they were mixed in equal amounts to prepare a GalN.LPS solution. The prepared GalN.LPS solution was injected into the tail vein in a dose of 10 mL/kg. The test compound was dissolved in a 0.1% aqueous triethylamine solution and the mixture was injected into the tail vein in a dose of 10 mL/kg substantially simultaneously with the injection of the GalN.LPS solution. […] The amount of TNFα produced in the plasma was measured using a commercially available TNFα ELISA kit. The inhibitory activity against TNFα production of the test compound was calculated as an inhibition rate against TNFα produced in response to the GalN.LPS injection. A regression line was obtained from the inhibition rates and the doses for the mice. The ID50 value (a dose at which the inhibition rate is 50%) was calculated from the regression line.
This test was performed according to the method by H. Takada (The Journal of Infectious Diseases 162, 428-434 (1990)).
Whether mice were alive or not was observed 72 hours after injection of a GalN.LPS solution, and the survival rate was calculated. The strain, age in week and gender of the mice used, the method of preparing the GalN.LPS solution and the compound solution administered, the administration route, the timing and the like were the same as in Test Example 3. A group of 8 mice was used in the test.

[2] = tested on: TNFα production in human whole blood; test: Test for inhibition against TNFα production in human whole blood (in vitro); format: cell-based
Description: This test was performed according to the method by Hartman et al. (D. A. Hartman, S. J. Ochalski and R. P. Carlson; The effects of antiinflammatory and antiallergic drugs on cytokine release after stimulation of human whole blood by lipopolysaccharide and zymosan A: Inflamm. Res., 44, 269 (1995)).
Peripheral blood was obtained from a healthy volunteer in the presence of heparin. 360 μL of whole blood was added to a 96-well block to which 20 μL of a dimethyl sulfoxide solution of the analyte compound was previously added. 20 μL of lipopolysaccharide (LPS) (derived from E. coli 026:B6 available from SIGMA Inc.) (final concentration: 10 ng/mL) was further added thereto as a stimulant, and the mixture was sufficiently mixed and incubated under conditions of 37° C. and 5% CO2 for 6 hours. After completion of the incubation, the mixture was cooled to 4° C. to discontinue the reaction, and the mixture was immediately centrifuged at 2000 rpm for 15 minutes. The supernatant plasma was then separated and collected. The TNFα produced and released in the plasma was measured by an enzyme-linked immunosorbent assay (ELISA) kit (made by Biosource International). The inhibition rate was determined from the amount of cytokine produced in the presence and in the absence of the analyte compound. IC50 values were calculated from the average of the inhibition rates by the least-square method. For comparison, an IC50 value was calculated in the same manner as in the case of the test compound, using a compound described in U.S. Pat. No. 5,935,938 as a comparative compound. The structural formula of the comparative compound is shown.
This test was performed in the same manner as in Test Example 1. The same comparative compound as in Test Example 1 was used.

TNFα production in mice = test: Test for inhibitory activity against TNFα production in mice (in vivo); parameters: species or system C3H/HeN mice; conditions: GalN.LPS, tail vein injection, plasma TNFα after an hour
Description: This test was performed according to the method by Y. Endo et al. (British Journal of Pharmacology 128, 5-12 (1999)).
as §1

[3] = human whole blood, LPS 10 ng/mL, 6 hours, ELISA, Test Example 1, Table 1, read-out: IC50 (nM), inhibition of TNFα production

Compound	Survival rate (%) of mice after 72 hours ([1]; dose 0.3 mg/kg, Table 7) [%]	Survival rate (%) of mice after 72 hours ([1]; dose 1 mg/kg, Table 7) [%]	Survival rate (%) of mice after 72 hours ([1]; dose 3 mg/kg, Table 7) [%]	IC50 [2, 3] [nM]	ID50 (mg/kg), inhibition of TNFα production (TNFα production in mice; Table 4) [mg/kg]	Survival rate (%) of mice after 72 hours ([1]; dose 0.3 mg/kg, Table 8) [%]	Survival rate (%) of mice after 72 hours ([1]; dose 1 mg/kg, Table 8) [%]	Survival rate (%) of mice after 72 hours ([1]; dose 3 mg/kg, Table 8) [%]	ID50 (mg/kg), inhibition of TNFα production (TNFα production in mice; Table 5) [mg/kg]	Survival rate (%) of mice after 72 hours ([1]; dose 0.3 mg/kg, Table 9) [%]	Survival rate (%) of mice after 72 hours ([1]; dose 1 mg/kg, Table 9) [%]	Survival rate (%) of mice after 72 hours ([1]; dose 3 mg/kg, Table 9) [%]	ID50 (mg/kg), inhibition of TNFα production (TNFα production in mice; Table 6) [mg/kg]	other results
CCCCCC/C=C\CCCCCCCCCCO[C@H]1[C@H](OC[C@H]2O[C@H](OP(=O)(O)O)[C@H](NC(=O)CC(=O)CCCCCCCCCCC)[C@@H](OCCCCCCCCCC)[C@@H]2O)O[C@H](COC)[C@@H](OP(=O)(O)O)[C@@H]1OCC[C@@H](CCCCCCC)OC [Compound 2, Phosphono 3-O-decyl-2-deoxy-6-O-{3-O-[(R)-3-methoxydecyl]-6-O-methyl-2-O-[(Z)-11-octadecenyl]-4-O-phosphono-β-D-glucopyranosyl}-2-(3-oxotetradecanoylamino)-α-D-glucopyranoside]	38	75	100	0.51	<0.2									
CCCCCC/C=C\CCCCCCCCCC(=O)O[C@H]1[C@H](OC[C@H]2O[C@H](OP(=O)(O)O)[C@H](OC(=O)CC(=O)CCCCCCCCCCC)[C@@H](OCCCCCCCCCC)[C@@H]2O)O[C@H](COC)[C@@H](OP(=O)(O)O)[C@@H]1OCC[C@@H](CCCCCCC)OC [Compound 8, phosphono 3-O-decyl-6-O-{3-O-[(R)-3-methoxydecyl]-6-O-methyl-2-O-[(Z)-11-octadecenoyl]-4-O-phosphono-β-D-glucopyranosyl}-2-O-(3-oxotetradecanoyl)-α-D-glucopyranoside]						50	75	100	0.55					IC50 ([2]; human whole blood, LPS 10 ng/mL, 6 hours, ELISA, Test Example 2, Table 2, read-out: IC50 (nM), inhibition of TNFα production): 0.06 nM
CCCCCC/C=C\CCCCCCCCCC(=O)O[C@H]1[C@H](OC[C@H]2O[C@H](OP(=O)(O)O)[C@H](NC(=O)CC(=O)CCCCCCCCCCC)[C@@H](OCCCCCCCCCC)[C@@H]2O)O[C@H](CO)[C@@H](OP(=O)(O)O)[C@@H]1OCC[C@@H](CCCCCCC)OC [Compound 3, Phosphono 3-O-decyl-2-deoxy-6-O-{3-O-[(R)-3-methoxydecyl]-2-O-[(Z)-11-octadecenoyl]-4-O-phosphono-β-D-glucopyranosyl}-2-(3-oxotetradecanoylamino)-α-D-glucopyranoside]	50	100	100	0.65	0.96									
CCCCCC/C=C\CCCCCCCCCC(=O)O[C@H]1[C@H](OC[C@H]2O[C@H](OP(=O)(O)O)[C@H](OC(=O)CC(=O)CCCCCCCCCCC)[C@@H](OCCCCCCCCCC)[C@@H]2O)O[C@H](CO)[C@@H](OP(=O)(O)O)[C@@H]1OCC[C@@H](CCCCCCC)OC [Compound 9, Phosphono 3-O-decyl-6-O-{3-O-[(R)-3-methoxydecyl]-2-O-[(Z)-11-octadecenoyl]-4-O-phosphono-β-D-glucopyranosyl}-2-O-(3-oxotetradecanoyl)-α-D-glucopyranoside]										13	38	100	<0.2	IC50 ([2]; human whole blood, LPS 10 ng/mL, 6 hours, ELISA, Test Example 2, Table 3, read-out: IC50 (nM), inhibition of TNFα production): 0.83 nM
CCCCCC/C=C\CCCCCCCCCC(=O)O[C@H]1[C@H](OC[C@H]2O[C@H](OP(=O)(O)O)[C@H](NC(=O)CC(=O)CCCCCCCCCCC)[C@@H](OCCCCCCCCCC)[C@@H]2O)O[C@H](COC)[C@@H](OP(=O)(O)O)[C@@H]1OCC[C@@H](CCCCCCC)OC [Compound 1, Phosphono 3-O-decyl-2-deoxy-6-O-{3-O-[(R)-3-methoxydecyl]-6-O-methyl-2-O-[(Z)-11-octadecenoyl]-4-O-phosphono-β-D-glucopyranosyl}-2-(3-oxotetradecanoylamino)-α-D-glucopyranoside]				0.49	0.45									
CCCCCC/C=C\CCCCCCCCCC(=O)N[C@H]1[C@H](OC[C@H]2O[C@H](OP(=O)(O)O)[C@H](NC(=O)CC(=O)CCCCCCCCCCC)[C@@H](OCCCCCCCCCC)[C@@H]2O)O[C@H](COC)[C@@H](OP(=O)(O)O)[C@@H]1OCC[C@@H](CCCCCCC)OC [Comparative Compound, reference compound]	25	63	100		2.12	50	75	50	3.28	13	0	25	1.82	IC50 ([2]; Homo sapiens, 6 h, read-out: IC50 (nM), inhibition of TNFα production, human whole blood, LPS 10 ng/mL, 6 hours, ELISA, Test Example 1, Table 1): 0.97 nM; IC50 ([2]; Homo sapiens, 6 h, read-out: IC50 (nM), inhibition of TNFα production, human whole blood, LPS 10 ng/mL, 6 hours, ELISA, Test Example 2, Table 2): 2.94 nM; IC50 ([2]; Homo sapiens, 6 h, read-out: IC50 (nM), inhibition of TNFα production, human whole blood, LPS 10 ng/mL, 6 hours, ELISA, Test Example 2, Table 3): 8.24 nM
